Results from patent US6417386B2, “Cyanohydrazone derivatives” (Syngenta Crop Protection, Inc., priority 1996, dated 2002).

melting point [°C]	SMILES
186 to 187	N#C/C(=N\Nc1c(Cl)cc(C(F)(F)F)cc1Cl)c1ccc(C#N)cc1 [Compound 3.4, 4-{1-[(2,6-dichloro-4-trifluoromethylphenyl)hydrazono]-2-nitriloethyl}benzonitrile]
164 to 165	N#C/C(=N\Nc1c(Cl)cc(C(F)(F)F)cc1Cl)c1ccc(Cl)cc1 [Compound 3.16, 4-{1-[(2,6-dichloro-4-trifluoromethylphenyl)hydrazono]-2-nitriloethyl}chlorobenzene]
